What was measured:
[1] = system: BxPC3 cells; assay: HGF-dependent proliferation assay in BxPC3 cells (stimulation); type: cell-based, human; conditions: n=12
Experimental: BxPC3 (human pancreatic adeocarcinoma; ECACC No. 93120816) were obtained from the European Collection of Cell Cultures (CAMR Centre for Applied Microbiology and Research, Porton Down, Salisbury, Wiltshire (UK) and were used in an HGF-dependent proliferation assay. Cells were grown in RPMI medium containing 10% FCS (Sigma F-6178, St. Louis, Mo.), 10 mM HEPES, 2 mM glutamine, 1× Penicillin-Streptomycin (Invitrogen 15140-122, Carlsbad, Calif.), 100× penicillin 10000 μg/ml-streptomycin 10000 mg/ml), and G418 (Invitrogen 10131-035) at 250 mg/ml. The cells were sequentially washed with PBS, PBS containing 10 mM EDTA, then removed using trypsin. The cells were harvested into serum containing media and the cell density was determined using a hemacytometer. Cells at 50000-75000/ml were seeded at 200 μl per well into a white bottom MT plate (Cultur Plate™ 6005680 Packard/PerkinElmer, Boston, Mass.) using the inside 60 wells only and allowed to grow for 24 h. The media was removed, the cells were washed with PBS and 200 ml of serum-free media containing 0.1% BSA (SF-BSA) was added back to the cells. The cells were grown for an additional 24 h. […]
The cells were allowed to grow for 72 h and then assayed using the CellTiter-Glo Luminescent Kit (Promega G7571, Madison, Wis.). […] The microtiter plate was read on a Tropix TR717 microplate luminometer (Berthold 75323 Bad Wildbad, Germany). […]

[2] = system: BxPC3 cells; assay: Inhibition of HGF-dependent cell proliferation in BxPC3 cells; type: cell-based, human; conditions: 5 μg/ml test protein, 25 ng/ml HGF WT; for inhibition of HGF-dependent cell proliferation activity (% activity II): normalized to 5 μg/ml mutant alone (0%) and 25 ng/ml HGF WT (100%); for inhibition of HGF-dependent cell proliferation activity (% activity I): normalized to no HGF (0%) and 25 ng/ml HGF WT (100%)
Experimental: BxPC3 (human pancreatic adeocarcinoma; ECACC No. 93120816) were obtained from the European Collection of Cell Cultures (CAMR Centre for Applied Microbiology and Research, Porton Down, Salisbury, Wiltshire (UK) and were used in an HGF-dependent proliferation assay. Cells were grown in RPMI medium containing 10% FCS (Sigma F-6178, St. Louis, Mo.), 10 mM HEPES, 2 mM glutamine, 1× Penicillin-Streptomycin (Invitrogen 15140-122, Carlsbad, Calif.), 100× penicillin 10000 μg/ml-streptomycin 10000 mg/ml), and G418 (Invitrogen 10131-035) at 250 mg/ml. The cells were sequentially washed with PBS, PBS containing 10 mM EDTA, then removed using trypsin. The cells were harvested into serum containing media and the cell density was determined using a hemacytometer. Cells at 50000-75000/ml were seeded at 200 μl per well into a white bottom MT plate (Cultur Plate™ 6005680 Packard/PerkinElmer, Boston, Mass.) using the inside 60 wells only and allowed to grow for 24 h. The media was removed, the cells were washed with PBS and 200 ml of serum-free media containing 0.1% BSA (SF-BSA) was added back to the cells. The cells were grown for an additional 24 h. […] Controls were run in the absence of HGF and/or in the absence of test HGF proteins.
The cells were allowed to grow for 72 h and then assayed using the CellTiter-Glo Luminescent Kit (Promega G7571, Madison, Wis.). The procedure followed is described in Promega Technical Bulletin TB288. The microtiter plate was read on a Tropix TR717 microplate luminometer (Berthold 75323 Bad Wildbad, Germany). The percent of stimulation or inhibition of cell proliferation was normalized to the appropriate controls.

[3] = system: MDA-MB-435 cells; assay: MDA-MB-435 cell migration transwell assay; type: cell-based
Experimental: (A) Representative purity of HGF mutants. […] Incomplete conversion of the secreted single-chain form by CHO expression in 1% FBS (v/v) is shown in lane 1. […] Molecular weight markers are shown as Mr×10^3. […] Values represent the averages of 4-8 independent experiments±SD.
Breast cancer cells MDA-MB-435 (HTB-129, ATCC, Manassas, Va.) were cultured in recommended serum-supplemented medium. Confluent cells were detached in PBS containing 10 mM EDTA and diluted with serum-free medium to a final concentration of 0.6−0.8×10^5 cells/ml. 0.2 ml of this suspension ([…]) was added in triplicate to the upper chambers of 24-well transwell plates (8 μm pore size) (HTS Multiwell™ Insert System, Falcon, Franklin Lakes, N.J.) pre-coated with 10 μg/ml of rat tail collagen Type I (Upstate, Lake Placid, N.Y.). […] After incubation for 13-14 h, cells on the apical side of the membrane were removed and those that migrated to the basal side were fixed in 4% paraformaldehyde followed by staining with a 0.5% crystal violet solution. After washing and airdrying, cells were solubilized in 10% acetic acid and the A560 was measured on a Molecular Devices microplate reader. […] Photographs of stained cells were taken with a Spot digital camera (Diagnostics Instruments, Inc., Sterling Heights, Mich.) connected to a Leitz microscope (Leica Mikroskope & Systeme GmbH, Wetzlar, Germany). […]

[4] = target: Met-IgG fusion protein (UniProt P08581); assay: HGF/Met-IgG competition binding ELISA; competitor: 1 nM biotinylated HGF

Row | Substance | inhibition of HGF-dependent cell proliferation activity (% activity II) [2] | inhibition of HGF-dependent cell proliferation activity (% activity I) [2] | further results
1 | HGF: wild type hepatocyte growth factor, disulfide-linked two-chain α/β heterodimer, recombinant from CHO cells |  |  | proliferation activity at 25 ng/ml as % of the activity at 100 ng/ml [1]: 83.6±13.0%
2 | HGF R695A: full length two-chain HGF with R695A mutation in the β-chain | 68% | 79% | 
3 | proHGF: uncleavable single chain form of HGF with amino acid changes R494E and R424A | 75% | 63% | stimulation of cell migration ([3]; 1 nM, MDA-MB435 cells, FIG. 2B, 2C): did not stimulate cell migration
4 | HGF β: HGF β-chain residues Val495 to Ser728 with Cys604 to Ser mutation and C-terminal His6 tag |  |  | effect in cell migration assay ([3]; concentrations of up to 0.95 μM): had no effect
5 | K641A [c173] (ligand) |  |  | IC50mut/IC50WT [4]: 1.04
